# Tests used:
# [1] = target: T1, EGF-receptor tyrosine kinase (Homo sapiens, UniProt P00533); assay: Inhibition of EGF-receptor Tyrosine Kinase; format: biochemical; conditions: EGF-R from A431 cell membranes, 30 °C, 30 min, ATP 10 μM, RR-src peptide 0.75 mM; read-out: IC50 Isolated enzyme EGF-R
# T1 construct: A membrane fraction from human A431 cells is used as the enzyme; endogenous in cells; host or cells: A431 cells, membrane fraction (Thom et al., Biochem. J. 168, 187 (1977))
# Experimental: Inhibition of EGF-receptor Tyrosine Kinase
# The activity of EGF-receptor tyrosine kinase is determined by measuring the transfer of ^32 P-labelled phosphate from ^32 P-γ-ATP (10 μM) to the substrate RR-scr peptide* (0.75 mM). A membrane fraction from human A431 cells is used as the enzyme. It is isolated according to Thom et al., Biochem. J. 168, 187 (1977) and stored at -75° C. (4-6 mg protein/ml). The compounds are tested in 10% DMSO in a concentration of 0.001-100 μM. The incubation is carried out at 30° C. for a period of 30 minutes in Tris buffer (25 mM, pH 7.4) which contains magnesium acetate (30 mM), sodium vanadate (0.5 mM), 0.5% BSA and 0.05% Triton X-100. The membranes are pre-incubated with 2 μM of EGF at 4° C. for 90 minutes. The test is started by adding the enzyme (2 μg of membrane protein) and terminated by adding ice-cold KH2 PO4 (1M, pH 3.0). After centrifugation the labelled peptide is separated from excess ATP in the supernatant by reversed phase HPLC. The peptide fraction is collected and the radioactivity is measured in a standard β-counter or on-line with a radiometer (Berthold). The inibitory activity of the test compound is expressed as the mikromolar concentration which is required for 50% inhibition (IC50 [μM]).
# *RR-src peptide=[Arg-Arg-Leu-Ile-Glu-Asp-Ala-Glu-Tyr-Ala-Ala-Arg-Gly]
# (§1) The inhibition of selected protein kinases in vitro and the inhibition of cell proliferation in HaCaT-cells by these compounds are set forth in the following Table.
# p56^Ick tyrosine kinase = target: T2, p56^Ick tyrosine kinase (Homo sapiens, UniProt P06239); assay: Inhibition of p56^Ick tyrosine kinase; format: biochemical; conditions: human recombinant p56lck, 30 °C, 30 min, ATP 10 μM, RR-src peptide 0.75 mM; read-out: IC50 Isolated enzyme p56^lck
# T2 construct: made in house; host or cells: E. coli
# T2 sequence (P06239 whole entry): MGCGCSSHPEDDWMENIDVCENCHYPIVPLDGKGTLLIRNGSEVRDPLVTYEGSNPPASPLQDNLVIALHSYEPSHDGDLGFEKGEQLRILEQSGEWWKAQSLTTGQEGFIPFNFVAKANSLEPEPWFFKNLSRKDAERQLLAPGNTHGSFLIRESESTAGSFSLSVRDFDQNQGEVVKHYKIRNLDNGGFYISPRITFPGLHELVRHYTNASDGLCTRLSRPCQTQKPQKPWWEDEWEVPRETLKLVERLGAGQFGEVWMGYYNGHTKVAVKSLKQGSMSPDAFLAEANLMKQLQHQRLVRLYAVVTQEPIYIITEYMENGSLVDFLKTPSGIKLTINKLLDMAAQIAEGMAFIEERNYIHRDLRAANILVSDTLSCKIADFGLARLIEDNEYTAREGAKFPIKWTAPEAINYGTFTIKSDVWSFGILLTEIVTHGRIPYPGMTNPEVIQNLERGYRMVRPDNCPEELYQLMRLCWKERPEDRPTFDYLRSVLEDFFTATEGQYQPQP
# Experimental: Inhibition of p56^Ick tyrosine kinase
# The activity of p56^Ick tyrosine kinase is determined by measuring the transfer of ^32 P-labelled phosphate from ^32 P-γ-ATP (10 μM) to the substrate RR-src peptide (0.75 mM). Human recombinant p56^Ick (expressed in E. coli) is used as the enzyme.
# It is purified from the soluble fraction by means of a monoclonal antibody column and stored at -75° C. The compounds are tested in 10% DMSO in a concentration of 0.001-100 μM, The incubation is carried out at 30° C. for a period of 30 minutes in HEPES buffer (50 mM, pH 6.9) which contains manganese chloride (11 mM) and 0.5% BSA. The test is started by adding the enzyme and terminated by adding ice-cold KH2 PO4 (1M, pH 3.0). After centrifugation the radiolabelled peptide is separated from excess ATP in the supernatant by reversed phase HPLC. The peptide fraction is collected and the radioactivity is determined in a standard β- counter or on-line with a radiometer (Berthold). The inhibitory activity of the test compound is expressed as the micromolar concentration which is required for 50% inhibition (IC50 [μM]).
# as §1
# protein kinase C (PKC) = assay: Inhibition of protein kinase C (PKC); format: biochemical; conditions: partially purified PKC from hog brain, histone H1, ATP 10 μM, 2 min at 32 °C; read-out: IC50 Isolated enzyme PCK
# Experimental: Inhibition of protein kinase C (PKC)
# The activity of PKC is measured by measuring the transfer of ^32 P-labelled phosphate from ^32 P-γ-ATP (10 μM) to the substrate histone H1 (200 μg/ml) using partially purified PKC from hog brain (DEAE chromatography according to U. Kikkawa et al., Methods Enzymol. 99, 288, 1983). PKC is activated by phospholipid vesicle prepared by sonicating a mixture of 0.05 ml of phosphatidylserine (10 mg/ml) and 0.005 ml of diolein (10 mg/ml) in 5 ml of Tris HCl buffer (20 mM, pH 7.4). The compounds are tested in DMSO/buffer at a concentration of 0.001-100 μM. The test is started by adding the enzyme, takes 2 minutes at 32° C. and is terminated by adding 20% trichloroacetic acid (containing 1% SDS and 1% sodium pyrophosphate). The precipitated protein with the labelled histone is separated from excess ATP by filtration over a nitrocellulose membrane filter. The radioactivity on the filter is measured in a scintillation counter. The inhibitory activity of the test compound is expressed as the micromolar concentration which is required for 50% inhibition (IC50 [μM]).
# as §1
# [2] = target: cAMP-dependent protein kinase (PKA); assay: Inhibition of cAMP-dependent protein kinase (PKA); format: biochemical; conditions: partially purified PKA from hog brain, histone H1, ATP 10 μM, 2 min at 32 °C; read-out: IC50 Isolated enzyme PKA
# Experimental: Inhibition of cAMP-dependent protein kinase (PKA)
# The activity of PKA is measured by measuring the transfer of ^32 P-labelled phosphate from ^32 P-γ-ATP (10 μM) to the substrate histone H1 (333 μg/ml) using partially purified PKA from hog brain (DEAE chromatography according to U. Kikkawa et al., Methods Enzymol. 99, 288, 1983). PKA is activated by 2 μM of cAMP in Tris HCl buffer (20 mM, pH 7.4). The compounds are tested in DMSO/buffer at a concentration of 0.001-100 μM. The test is started by adding the enzyme, takes 2 minutes at 32° C. and is terminated by adding 20% trichloroacetic acid (containing 1% SDS and 1% sodium pyrophosphate). The precipitated protein, which contains the radiolabelled histone, is separated from excess ATP by filtration through a nitrocellulose membrane filter. The radioactivity on the filter is determined in a scintillation counter. The inhibitory activity of the test compounds is expressed as the micromolar concentration which is required for 50% inhibition (IC50 [μM]).
# as §1
# HaCaT cells = assay: Inhibition of HaCaT cell proliferation; format: cell-based; conditions: Homo sapiens, [3H]-thymidine incorporation, 48 h at 37 °C
# Experimental: Inhibition of HaCaT cell proliferation
# HaCaT is a spontaneous immortalized human keratinoycte cell line (Boukamp et al. 1988) which has been used many times as a model system for hyperproliferative keratinoyctes. The incorporation of [^3 H]-thymidine was used to quantify the growing cells in the S phase of the cell cycle. The cells were cultivated with a 3:1 mixture of DMEM/F12 medium which had been supplemented with 5% FCS, EGF (10 μg/l), hydrocortisone (400 μg/l), cholera toxin (8.5 μg/l), insulin (5 μg/l), L-glutamine (2 mM) and penicillin/streptomycin. 200 μl of medium were placed in microtitre plates such that each sample contained 5000 cells. The test compounds were added in serial dilutions in the range of 1×10^-8 M to […] at the beginning of the cultivation. The cells were incubated at 37° C. for 48 hours. For the last 6 hours [^3 H]-thymidine was added ([…]). After digesting the cells with trypsin the amount of incorporated radioactivity was quantified with a liquid scintillation counter.
# as §1
# mouse hair follicles = assay: Stimulation of cell proliferation in cultured mouse hair follicles; format: cell-based; conditions: for EC50: read-out: concentration which resulted in a half-maximum stimulation of the DNA synthesis (EC50 value)
# Experimental: Stimulation of cell proliferation in cultured mouse hair follicles
# Mouse hair follicles are isolated and cultured according to the method described by Buhl et al., J. Invest. Dermatol. 92, 315 (1989). Whisker parts are removed from CD-1 mice aged 4 days and the hair follicles are carefully separated from surrounding tissue under the microscope. Hair follicles are cultured in M199 medium which contains 20% FBS and the cell proliferation is determined from the incorporation of [^3 H]-thymidinein DNA. The test compounds are dissolved in DMSO and added in serial dilutions in the range of 1×10^-8 to 1×10^-6 M at the beginning of the cultivation. After 1 day 5 μCi/ml of [^3 H]-thymidine are added to the culture medium and the follicles are incubated for a further 3 days. The hair follicles are then washed with phosphate-buffered saline solution in order to remove non-incorporated radioactivity and the DNA is solubilized by incubation with alkali overnight. The radioactivity incorporated into the follicular DNA is then measured using a liquid scintillation counter.
# [3] = [3H]-thymidine incorporation, CD-1 mouse whisker follicles
# T1 sequence (P00533 25-1210): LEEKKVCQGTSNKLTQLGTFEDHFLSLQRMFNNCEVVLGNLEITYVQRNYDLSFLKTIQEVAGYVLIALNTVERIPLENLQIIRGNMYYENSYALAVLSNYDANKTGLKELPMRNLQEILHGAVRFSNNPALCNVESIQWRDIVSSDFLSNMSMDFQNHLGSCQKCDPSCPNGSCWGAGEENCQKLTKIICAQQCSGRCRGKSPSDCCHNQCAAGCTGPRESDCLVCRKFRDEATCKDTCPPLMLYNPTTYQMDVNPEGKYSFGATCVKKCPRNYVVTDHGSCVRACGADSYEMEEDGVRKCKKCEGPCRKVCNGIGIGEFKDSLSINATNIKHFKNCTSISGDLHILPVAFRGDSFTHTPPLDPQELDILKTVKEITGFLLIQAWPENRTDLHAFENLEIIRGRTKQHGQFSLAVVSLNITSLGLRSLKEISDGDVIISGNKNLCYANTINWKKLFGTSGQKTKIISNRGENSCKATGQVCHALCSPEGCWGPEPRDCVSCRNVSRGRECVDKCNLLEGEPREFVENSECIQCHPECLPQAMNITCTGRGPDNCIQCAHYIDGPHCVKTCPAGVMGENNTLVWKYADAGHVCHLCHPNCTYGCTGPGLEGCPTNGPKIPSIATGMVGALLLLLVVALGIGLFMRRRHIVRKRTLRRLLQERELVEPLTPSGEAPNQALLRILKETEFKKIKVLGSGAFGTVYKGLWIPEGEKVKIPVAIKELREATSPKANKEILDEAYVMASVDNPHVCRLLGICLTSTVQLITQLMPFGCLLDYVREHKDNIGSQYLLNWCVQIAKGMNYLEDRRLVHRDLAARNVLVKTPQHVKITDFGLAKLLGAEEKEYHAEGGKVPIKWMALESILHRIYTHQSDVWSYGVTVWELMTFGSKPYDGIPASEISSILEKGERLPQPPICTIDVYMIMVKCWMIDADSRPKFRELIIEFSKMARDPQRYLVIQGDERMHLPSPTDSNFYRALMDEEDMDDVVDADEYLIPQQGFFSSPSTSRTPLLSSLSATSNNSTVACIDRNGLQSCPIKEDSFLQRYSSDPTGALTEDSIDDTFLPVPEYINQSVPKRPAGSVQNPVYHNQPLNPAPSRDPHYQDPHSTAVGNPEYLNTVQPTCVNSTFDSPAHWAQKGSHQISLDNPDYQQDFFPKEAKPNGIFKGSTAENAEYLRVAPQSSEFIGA
SMILES,IC50 [1],IC50 (p56^Ick tyrosine kinase),IC50 (protein kinase C (PKC)),IC50 [2],IC50 (HaCaT cells),"activity at 0.3 µM (mouse hair follicles; 96 h, at 0.3 μM, [3H]-thymidine incorporation, CD-1 mouse whisker follicles, read-out: maximum DNA synthesis value (compared with controls))",EC50 (mouse hair follicles; [3]),activity in this culture system compared with known hypotrichotic agents (mouse hair follicles; mouse hair follicle culture),"stimulation of hair follicle DNA synthesis (compared with controls) (mouse hair follicles; concentration not given, comparison agent, 5760 min)"
"Cc1cc(C)c(-c2nc(-c3ccncc3)c(-c3ccc(Cl)cc3)[nH]2)c(C)c1 [Example 1, 4-[5-(4-chlorophenyl)-2-(2,4,6-trimethyphenyl)imidazol-4-yl]pyridine]",340 nM,2200 nM,> 100000 nM,6300 nM,2000 nM,211 ± 17%,100 nM,exceeded that of known hypotrichotic agents,–
"Cc1cccc(-c2[nH]c(-c3c(C)cc(C)cc3C)nc2-c2ccncc2)c1 [Example 4, 4-[5-(3-methylphenyl)-2-(2,4,6-trimethylphenyl)imidazol-4-yl]pyridine]",800 nM,6000 nM,> 100000 nM,190000 nM,2000 nM,–,–,–,–
"CC(C)c1cccc(C(C)C)c1-c1nc(-c2ccncc2)c(-c2ccc(Cl)cc2)[nH]1 [Example 7, 4-[5-(4-chlorophenyl)-2-(2,6-diisopropylphenyl)imidazol-4-yl]pyridine]",130 nM,3100 nM,100000 nM,470 nM,3500 nM,–,–,–,–
"COC(=O)c1c(C)cc(C)c(-c2nc(-c3ccncc3)c(-c3ccc(Cl)cc3)[nH]2)c1C [Example 9, methyl 3-[5-(4-chlorophenyl)-4-pyridin-4-yl-imidazol-2-yl]2,4,6-trimethylbenzoate]",140 nM,3800 nM,80000 nM,6000 nM,230 nM,–,–,–,–
"Cc1cc(C)c(-c2nc(-c3ccncc3)c(-c3ccc(Cl)cc3)[nH]2)c(C)c1CN1CCOCC1 [Example 11, 4-[3-[5-(4-chlorophenyl)-4-pyridin-4-yl-imidazol-2-yl]-2,4,6,-trimethylbenzyl]morpholine]",260 nM,5100 nM,> 100000 nM,43000 nM,100 nM,–,–,–,–
"Cc1cc(C)c(-c2nc(-c3ccncc3)c(-c3ccc(Cl)cc3)[nH]2)c(C)c1CN(C)C [Example 12, [3-[5-(4-chlorophenyl)-4-pyridin-4-yl-imidazol-2-yl]-2,4,6,-trimethylbenzyl]dimethylamine]",50 nM,1650 nM,7000 nM,5000 nM,570 nM,–,–,–,–
"Cc1cc(C)c(-c2nc(-c3ccncc3)c(-c3ccc(Cl)cc3)[nH]2)c(C)c1CN1CCN(C)CC1 [Example 13, 1-[3-[5-(4-chlorophenyl)-4-pyridin-4-yl-imidazol-2-yl]-2,4,6,-trimethylbenzyl]-4-methylpiperazine]",50 nM,1800 nM,37000 nM,1500 nM,100 nM,–,–,–,–
"Cc1cc(C)c([N+](=O)[O-])c(C)c1-c1nc(-c2ccncc2)c(-c2ccc(Cl)cc2)[nH]1 [Example 15, 4-[5-(4-chlorophenyl)-2-(2,4,6-trimethyl-3-nitrophenyl)-imidazol-4-yl]pyridine]",780 nM,4950 nM,–,–,670 nM,–,–,–,–
"Cc1cc(C)c(-c2nc(-c3ccncc3)c(-c3ccc(Cl)cc3)[nH]2)c(C)c1O [Example 16, 3-[5-(4-chlorophenyl)-4-pyridin-4-yl-imidazol-2-yl]-2,4,6,-trimethylphenol]",310 nM,2200 nM,–,–,800 nM,–,–,–,–
"Nc1cccc(Cl)c1-c1nc(-c2ccncc2)c(-c2ccc(Cl)cc2)[nH]1 [Example 18, 3-chloro-2-[5-(4-chlorophenyl)-4-pyridin-4-yl-imidazol-2-yl]phenylamine]",290 nM,14000 nM,23000 nM,1800 nM,2000 nM,–,–,–,–
"Nc1cc(N2CCCCC2)nc(N)[n+]1[O-] [minoxidil, reference compound]",–,–,–,–,–,–,200000 nM,–,160±15%

# Source: patent US5959113A, “Imidazol derivatives” (Hoffmann-La Roche Inc., priority 1994, dated 1999)
